# Active and inactive are the calls of the source. The rule behind the calls is not given here.
# Target: Ubiquitin-conjugating enzyme E2 N (Homo sapiens) (UniProt P61088)
# Experiment: NMR detection of UBE2N ligand binding – biophysical, purified protein (AID 1552)
# Conditions: NMR binding to purified UBE2N
# Ubiquitin-conjugating enzyme E2 N (Homo sapiens), sequence (P61088 whole entry, looked up): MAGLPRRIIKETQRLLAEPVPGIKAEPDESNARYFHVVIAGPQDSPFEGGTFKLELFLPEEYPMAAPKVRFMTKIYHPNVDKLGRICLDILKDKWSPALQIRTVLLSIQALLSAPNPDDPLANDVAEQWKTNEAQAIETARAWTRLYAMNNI
row,Structure (SMILES),Kd
1,NCc1ccccc1N1CCCCC1,> 4 mM (inactive)
2,Nc1[nH]c(=S)ncc1S(=O)(=O)c1ccccc1,> 4 mM (inactive)
3,O=C(O)c1cccc2c1OCCO2,> 4 mM (inactive)
4,CCOC(=O)c1c[nH]c2c(F)cccc2c1=O,> 4 mM (inactive)
5,CN1CCN(c2ncnc3nc[nH]c23)CC1,> 4 mM (inactive)
6,COc1cccc(Oc2ccc(N)cc2)c1,> 4 mM (inactive)
7,COc1cc2nc(N3CCNCC3)nc(N)c2cc1OC,> 4 mM (inactive)
8,Cc1nn2c(-c3ccco3)nnc2c2ccccc12,> 4 mM (inactive)
9,COC1=CC(=O)C[C@@H](C)[C@]12Oc1c(Cl)c(OC)cc(OC)c1C2=O,> 4 mM (inactive)
10,NC(=O)c1ccsc1NC(=O)c1cccnc1,> 4 mM (inactive)
11,O=S(=O)(N1CCOCC1)n1nnc2ccccc21,> 4 mM (inactive)
12,O=S1(=O)NC(=NCc2ccco2)c2ccccc21,> 4 mM (inactive)
13,C[C@H]1[C@H](C)CC[C@]2(CO)CC[C@]3(C)C(=CCC4[C@@]5(C)CC[C@H](O)C(C)(C)C5CC[C@]43C)[C@H]12 (stereo partly specified),> 4 mM (inactive)
14,Cn1nc(C(=O)Nc2cccnc2)cc1Cl,> 4 mM (inactive)
15,Cc1nn(C)c2sc(CO)cc12,> 4 mM (inactive)
16,O=C(O)c1cc2ccccc2cn1,> 4 mM (inactive)
17,O=c1ccc2cc(O)c(O)cc2o1,> 4 mM (inactive)
18,Oc1ccc(-n2cncn2)cc1,> 4 mM (inactive)
19,CN1C(=O)N(C)C2NC(=O)NC21 (stereo unspecified),> 4 mM (inactive)
20,NC(=O)C1CCN(S(=O)(=O)c2ccccc2)CC1,> 4 mM (inactive)
21,CC(=O)Nc1ccc(S(N)(=O)=O)cc1,> 4 mM (inactive)
22,CC(=O)c1cccc(NC(=O)N2CCc3ccccc3C2)c1,> 4 mM (inactive)
23,CSc1ccc(/C=N/n2c(C)nnc2C)cc1,> 4 mM (inactive)
24,Cc1ccc(C(=O)N2CC(=O)NC(=O)C2)cc1,> 4 mM (inactive)

row,Structure (SMILES),Kd
1,CCCS(=O)(=O)N1CCN(c2ccccc2F)CC1,> 4 mM (inactive)
2,CN1C(=O)Cc2cc(S(N)(=O)=O)ccc21,> 4 mM (inactive)
3,COC(=O)c1cncc(C(=O)OC)c1,> 4 mM (inactive)
4,O=C(Nn1cnnc1)c1csc2c1CCCC2,> 4 mM (inactive)
5,O=C(/C=C/c1ccccc1)c1ccc(O[C@@H]2O[C@H](CO)[C@@H](O)[C@H](O)[C@H]2O)cc1O,> 4 mM (inactive)
6,NC1=NC(=O)/C(=C/c2cccs2)S1,> 4 mM (inactive)
7,CCC[C@@H]1CCCCN1,> 4 mM (inactive)
8,O=S(=O)(NCc1ccco1)N1CCOCC1,> 4 mM (inactive)
9,COc1ccc(-c2coc3c(OC)c(OC)cc(O)c3c2=O)cc1,> 4 mM (inactive)
10,CC(C)Nc1ncnc2c1nnn2C,> 4 mM (inactive)
11,CCN1CC2(C)CC[C@H](OC)[C@]34C2[C@H](O)C2(OCO[C@@]25C[C@H](OC)[C@H]2C[C@]3(O)C5[C@H]2O)C14,> 4 mM (inactive)
12,S=c1oc(-c2ccncc2)nn1CCc1ccncc1,> 4 mM (inactive)
13,CC(=O)OCC(OC(C)=O)C(OC(C)=O)C(OC(C)=O)C(OC(C)=O)C(COC(C)=O)OC(C)=O (stereo unspecified),> 4 mM (inactive)
14,COC(=O)CC1=Nc2ccccc2NC(=O)C1,> 4 mM (inactive)
15,O=C(c1ccccc1)N1CCNCC1,> 4 mM (inactive)
16,O=c1nc(NCc2ccco2)sc2ncccc12,> 4 mM (inactive)
17,Cc1cc(C)n2nc(N)nc2n1,> 4 mM (inactive)
18,Oc1cc(O)c2c(c1)O[C@H](c1ccc(O)c(O)c1)[C@H](O)C2,> 4 mM (inactive)
19,COc1cc(-c2coc3cc(OC)c(OC)c(OC)c3c2=O)cc(OC)c1OC,> 4 mM (inactive)
20,CC(=O)Nc1ccc(NC2SC(=O)NC2=O)cc1 (stereo unspecified),> 4 mM (inactive)
21,O=C(NCc1ccco1)c1cccc(F)c1,> 4 mM (inactive)
22,OCc1ccc2c(c1)CCO2,> 4 mM (inactive)
23,O=C(O)/C=C(\CC(=O)O)C(=O)O,> 4 mM (inactive)
24,N#Cc1nc(-c2ccccc2Cl)oc1N1CCOCC1,> 4 mM (inactive)

row,Structure (SMILES),Kd
1,Nc1cc(=O)[nH]c(=O)n1Cc1ccco1,> 4 mM (inactive)
2,COc1ccc(N=C2NC(=O)CS2)cc1,> 4 mM (inactive)
3,O=C1CCC(=O)N1CNc1ccccc1,> 4 mM (inactive)
4,CNC(=S)Nc1ccc(C(=O)O)cc1,> 4 mM (inactive)
5,O=C(Nc1ccccc1)Nc1ccccc1,> 4 mM (inactive)
6,O=C1c2ccncc2C(=O)N1CNc1ccccn1,> 4 mM (inactive)
7,COC(=O)C1=CCCN(C)C1,> 4 mM (inactive)
8,O=C(O)Cn1cc(C(F)(F)F)ccc1=O,> 4 mM (inactive)
9,COC(=O)C1Cc2ccccc2N1 (stereo unspecified),> 4 mM (inactive)
10,CC1(C)CC(=O)c2cnn(-c3nc4ccccc4[nH]3)c2C1,> 4 mM (inactive)
11,Cc1cc(C(=O)NN2CCOCC2)c(C)o1,> 4 mM (inactive)
12,CCOC(=O)CNC(=O)CSc1nnc(C)c(=O)[nH]1,> 4 mM (inactive)
13,O=C1CSC(=Nc2cccc(C(F)(F)F)c2)N1,> 4 mM (inactive)
14,O=C(NC(=S)NCCO)c1ccccc1,> 4 mM (inactive)
15,O=S1(=O)C=CC(Nc2ccccc2)C1 (stereo unspecified),> 4 mM (inactive)
16,COc1ccccc1Nc1nncc(=O)[nH]1,> 4 mM (inactive)
17,O=C(O)C1=Cc2ccccc2OC1,> 4 mM (inactive)
18,COc1cc(S(=O)(=O)N(C)C)ccc1F,> 4 mM (inactive)
19,NC1=NC(=O)C(Cc2cccc([N+](=O)[O-])c2)S1 (stereo unspecified),> 4 mM (inactive)
20,O=C(NCc1cccs1)c1nn2cccnc2c1Cl,> 4 mM (inactive)
21,Cc1ccc(SCc2nc(-c3ccncc3)no2)cc1,> 4 mM (inactive)
22,CC12CN3CC(C)(CN(C1)C3c1cccs1)C2O (stereo unspecified),> 4 mM (inactive)
23,Cc1ccc2c(c1)CC[C@H]1CC(=O)CC[C@]21C,> 4 mM (inactive)
24,Cc1ccc2nc(SCCC#N)nc(C)c2c1,> 4 mM (inactive)

row,Structure (SMILES),Kd
1,CS(=O)(=O)CCCCN=C=S,> 4 mM (inactive)
2,CCOc1ccc(C(=O)c2ccc(O)c(O)c2O)cc1,> 4 mM (inactive)
3,CC(=O)Nc1ccc(N2C(=O)C=CC2=O)cc1C,> 4 mM (inactive)
4,CSc1ccccc1C(=O)N1CCOCC1,> 4 mM (inactive)
5,COCc1cc(=O)oc2cc(O)c(Cl)cc12,> 4 mM (inactive)
6,NCCC(=O)N[C@@H](Cc1cnc[nH]1)C(=O)O,> 4 mM (inactive)
7,CC(=O)N1CCC(NC2CCCCCC2)CC1,> 4 mM (inactive)
8,COC(=O)c1ccccc1NC(=O)c1cc[n+]([O-])cc1,> 4 mM (inactive)
9,COc1ccc2c(c1)OC/C(=C\c1ccc(OC)c(O)c1)C2=O,> 4 mM (inactive)
10,Nc1n[nH]c(=S)n1-c1ccccc1,> 4 mM (inactive)
11,O=C1NC(=O)C(c2ccccc2)C(=O)N1,> 4 mM (inactive)
12,NS(=O)(=O)c1ccc(N=Cc2ccc[nH]2)cc1,> 4 mM (inactive)
13,Cn1ncc(CO)c1-c1ccccc1,> 4 mM (inactive)
14,S=C(c1cccnc1)N1CCOCC1,> 4 mM (inactive)
15,O=C(O)CNC(=O)c1ccc([N+](=O)[O-])cc1,> 4 mM (inactive)
16,C=C(C)[C@H]1Cc2c(ccc3c2O[C@@H]2COc4cc(OC)c(OC)cc4[C@@H]2C3=O)O1,> 4 mM (inactive)
17,COc1cc(C(=S)N2CCC(C(N)=O)CC2)ccc1O,> 4 mM (inactive)
18,C/C=C(/C)C(=O)O[C@@H]1[C@H](OC(C)=O)[C@@]2(CO)C(CC1(C)C)C1=CCC3[C@@]4(C)CC[C@H](O[C@@H]5O[C@H](C(=O)O)[C@@H](O[C@@H]6O[C@H](CO)[C@@H](O)[C@H](O)[C@H]6O)[C@H](O)[C@H]5O[C@@H]5O[C@H](CO)[C@@H](O)[C@H](O)[C@H]5O)[C@](C)(CO)C4CC[C@@]3(C)[C@]1(C)C[C@H]2O (stereo partly specified),> 4 mM (inactive)
19,Cc1cc(=O)n(CC(C)C)c(O)c1C#N,> 4 mM (inactive)
20,COCC(=O)Nc1cccc2ccccc12,> 4 mM (inactive)
21,O=C1NCCCC1C(=O)N/N=C/c1ccccc1 (stereo unspecified),> 4 mM (inactive)
22,Cc1nc(-c2cc(CO)no2)cs1,> 4 mM (inactive)
23,CC(C)=CCCC1(C)C=Cc2c(O)c3c(c(CC=C(C)C)c2O1)OC12C(=CC4CC1C(C)(C)OC2(C/C=C(/C)C(=O)O)C4O)C3=O (stereo unspecified),> 4 mM (inactive)
24,COC(=O)NCc1cc2cc(Cl)ccc2[nH]1,> 4 mM (inactive)

row,Structure (SMILES),Kd
1,O=C(NCc1ccco1)c1ccc(Br)s1,> 4 mM (inactive)
2,Cc1ccccc1NC(=S)NCCO,> 4 mM (inactive)
3,O=C(c1ccc(Cl)s1)N1CCOCC1,> 4 mM (inactive)
4,Cn1c(NCC(=O)O)nc2c1c(=O)[nH]c(=O)n2C,> 4 mM (inactive)
5,COc1ccc(NC(=O)N2CCCCC2)cc1,> 4 mM (inactive)
6,COc1ccc2c(c1)OCC(Cc1ccc(OC)c(OC(C)=O)c1)C2=O (stereo unspecified),> 4 mM (inactive)
7,NC(=O)C1CCCN1S(=O)(=O)c1ccc(F)cc1 (stereo unspecified),> 4 mM (inactive)
8,COc1ccc2c(c1)O[C@@H]1COc3cc(OC)c(OC)cc3[C@@H]1C2=O,> 4 mM (inactive)
9,O=c1cc(CO)oc(CN2CCCCC2)c1O,> 4 mM (inactive)
10,Cn1c(=O)n(CC(=O)Nc2cccnc2)c2ccccc21,> 4 mM (inactive)
11,O=C1CCC(=O)N1c1nc2ccccc2s1,> 4 mM (inactive)
12,N#CCSc1nc2ccccc2c(=O)n1-c1ccccc1,> 4 mM (inactive)
13,NC(=O)c1cccc(N2C(=O)C=CC2=O)c1,> 4 mM (inactive)
14,c1cncc(-c2nnc(-c3cccnc3)nn2)c1,> 4 mM (inactive)
15,O=C(O[C@@H]1Cc2c(O)cc(O)cc2O[C@@H]1c1cc(O)c(O)c(O)c1-c1c([C@H]2Oc3cc(O)cc(O)c3C[C@H]2O)cc(O)c(O)c1O)c1cc(O)c(O)c(O)c1,> 4 mM (inactive)
16,CC(=O)Nc1ccc(N2CCOCC2)cc1,> 4 mM (inactive)
17,Cc1ccc(C)n1/N=C1\NC(=O)CS1,> 4 mM (inactive)
18,CC1(C)Oc2ccc3ccc(=O)oc3c2CC1O (stereo unspecified),> 4 mM (inactive)
19,COc1ccccc1-c1nc(=S)[nH][nH]1,> 4 mM (inactive)
20,CP(C)(=O)c1cccc(C(=O)O)c1,> 4 mM (inactive)
